Results from patent US8569011B2, “Fluorescent derivatives of polyamines, method for preparing same and applications thereof as diagnosis tools in the treatment of cancerous tumors” (Pierre Fabre Medicament, priority 2007, dated 2013).

Legend:
KG-1 [1] = assay: Cytotoxicity, residual ATP (ATPlite kit), 72 hours, KG-1; format: cell-based; conditions: Homo sapiens, KG-1 leukemic line, 72 hours incubation
Protocol: (§1) An anticancer compound is used, a derivative of epipodophyllotoxin, whose intracellular penetration is dependent on the polyamine transporter, such as the compound described in example 27 of patent application WO 2005/100363 and, as reference compound, etoposide which is a non-vectored epipodophyllotoxin. These two compounds have the same mechanism of action on cancer cells: they are both inhibitors of topoisomerase 2.
(§2) A panel of leukemic lines was assayed to ascertain probe incorporation, here the one described in example 1, regarding the sensitivity to a vectored agent such as the compound in example 27 of patent application WO 2005/100363 and by comparison with non-vectored etoposide. After an incubation time of 72 hours with the compound of example 27 in patent application WO 2005/100363 or with etoposide, cytotoxicity was evaluated using the ATPlite kit. Cells from the same line were also incubated in the presence of the probe described in example 1, and were analyzed by flow cytometry. Fluorescence intensity measured at 525 nm was followed from 0 to 1 hour 30 minutes and the slope of intensity variation was calculated.

BLUE-1 [2] = assay: Cytotoxicity, residual ATP (ATPlite kit), 72 hours, BLUE-1; format: cell-based; conditions: BLUE-1 leukemic line, 72 hours incubation
Protocol: as §1, §2

U-937 [3] = assay: Cytotoxicity, residual ATP (ATPlite kit), 72 hours, U-937; format: cell-based; conditions: Homo sapiens, U-937 leukemic line, 72 hours incubation
Protocol: as §1, §2

BL-41 [4] = assay: Cytotoxicity, residual ATP (ATPlite kit), 72 hours, BL-41; format: cell-based; conditions: Homo sapiens, BL-41 leukemic line, 72 hours incubation
Protocol: as §1, §2

CEM [5] = assay: Cytotoxicity, residual ATP (ATPlite kit), 72 hours, CEM; format: cell-based; conditions: Homo sapiens, CCRF-CEM, CEM leukemic line, 72 hours incubation
Protocol: as §1, §2

U-937 [6] = assay: Fluorescent probe incorporation (polyamine transport activity) by flow cytometry, U-937; format: cell-based; conditions: (cell intensity with probe presence) - (cell intensity without probe presence), emission 525 nm
Protocol: (§3) Cells taken from biopsies are mechanically separated with or without the presence of trypsin depending on the constitution of the tissue under consideration. The haematopoietic cells are separated and isolated following conventional preparation methods for blood cells. Once isolated after a fairly short time to ensure the viability of the cells being examined, the cells are placed in the presence of the probe such as synthesized in examples 1 to 3 for example, and left to incubate in the recommended culture medium for the tissue under consideration in the presence of aminoguanidine. Aminoguanidine is used to prevent in vitro denaturating of the polyamines. […] An incubation time of one to four hours is sufficient and allows detection of fluorescence by immunochemistry or flow cytometry, by choosing excitation and emission wavelengths compatible with the substituent of the fluorescent probe. This analysis is conducted by flow cytometry or histochemistry following standard methodology in the study described below, by exciting the probe obtained in example 1, N-(3-aminopropyl)-N′-{3-[methyl-(7-nitrobenzo[1,2,5]oxadiazol-4-yl)-amino]-propyl}-butane-1,4-diamine with a 488 nm source and measuring fluorescence emission at 525 nm. […]
(§4) For all the assayed lines, the capacity to incorporate the fluorescent probe, characterized by the fluorescence measured by flow cytometry, was also measured.

KG-1 [7] = assay: Fluorescent probe incorporation (polyamine transport activity) by flow cytometry, KG-1; format: cell-based; conditions: (cell intensity with probe presence) - (cell intensity without probe presence), emission 525 nm
Protocol: as §3, §4

BL-41 [8] = assay: Fluorescent probe incorporation (polyamine transport activity) by flow cytometry, BL-41; format: cell-based; conditions: (cell intensity with probe presence) - (cell intensity without probe presence), emission 525 nm
Protocol: as §3, §4

CEM [9] = assay: Fluorescent probe incorporation (polyamine transport activity) by flow cytometry, CEM; format: cell-based; conditions: (cell intensity with probe presence) - (cell intensity without probe presence), emission 525 nm
Protocol: as §3, §4

BLUE-1 [10] = assay: Fluorescent probe incorporation (polyamine transport activity) by flow cytometry, BLUE-1; format: cell-based; conditions: (cell intensity with probe presence) - (cell intensity without probe presence), emission 525 nm
Protocol: as §3, §4

A549 cells = assay: Selectivity of the probes vis-a-vis tumor cells: probe incorporation in A549 cells compared with MRC-5 cells; format: cell-based, human
Protocol: as §3

With COc1cc([C@@H]2c3cc4c(cc3[C@@H](O[C@@H]3O[C@@H]5CO[C@@H](C)O[C@H]5[C@H](O)[C@H]3O)[C@H]3COC(=O)[C@H]23)OCO4)cc(OC)c1O [Etoposide, etoposide] the IC50 (KG-1 [1]) was 5000 nM, the IC50 (BLUE-1 [2]) was 1000 nM and the IC50 (U-937 [3]) was 400 nM. The IC50 (BL-41 [4]) was 400 nM and the IC50 (CEM [5]) was 60 nM.
For CN(CCCNCCCCNCCCN)c1ccc([N+](=O)[O-])c2nonc12 [Example 1, N-(3-aminopropyl)-N′-{3-(methyl-(7-nitrobenzo[1,2,5]oxadiazol-4-yl)-amino)-propyl}-butane-1,4-diamine], the Polyamine transport activity (U-937 [6]) was 33 Arbitrary Unit of fluorescence, the Polyamine transport activity (KG-1 [7]) was 17 Arbitrary Unit of fluorescence and the Polyamine transport activity (BL-41 [8]) was 164 Arbitrary Unit of fluorescence. The Polyamine transport activity (CEM [9]) was 421 Arbitrary Unit of fluorescence, the Polyamine transport activity (BLUE-1 [10]) was 58 Arbitrary Unit of fluorescence and the “Incorporation differential tumoral cells versus healthy cells” value (A549 cells; flow cytometry, A549 vs MRC-5) was “confirmed by flow cytometry”. The “Incorporation of the probe in tumoral cells versus cells from healthy tissue” value (A549 cells; fluorescence microscope, slide cultured cells, A549 (FIG. 1A) vs MRC-5 healthy lung (FIG. 1B), excitation 488 nm, emission 525 nm) was “much greater incorporation”.
